# Measured values as given in PubChem BioAssay AID492957 (The Scripps Research Institute Molecular Screening Center, 2010).
# Activity calls are given as the source filed them.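 Rule for the calls: active = IC50 at or below 10 µM; inactive = IC50 above 10 µM.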
# Tested on: E. coli V66 + T4 gene 2 mutant phage, OD growth
# Assay: E. coli RecBCD inhibitors, dose response, counter-screen for AddAB inhibitor project, absorbance, V66 E. coli, mutant T4 phage (AID 492957)
smiles,measurement,value
O=C(NCc1cccnc1)c1ccc([N+](=O)[O-])o1,IC50,86.4 µM (inactive)
